Experiment [1] relates to INS1. Put plainly: protection of INS-1E cells from cytokine death, dose response, ATP luminescence, dry powder (AID 488844). The format is functional, cell-based. As to conditions: Rattus norvegicus.
Experiment [2] deals with INS1. In words: protection from cytokine-driven beta-cell apoptosis, dose response, JC-1 fluorescence, INS-1E, dry powder, set 2 (AID 488867). Format: functional, cell-based. As to conditions: Rattus norvegicus.
Experiment [3] has as its system INS1. In words: protection from cytokine-induced mitochondrial depolarization, dose response, cell-based, INS-1E, JC-1 fluorescence ratio, dry powder (AID 488931). The format is functional. As to conditions: Rattus norvegicus.
Experiment [4] is described as follows: Counterscreen for IDE inhibitors: Luminescence-based cell-based high throughput dose response assay to identify compounds that are cytotoxic to HEK cells. [Related pubchem assays: 434962 (Primary screen (IDE inhibitors in singlicate)), 449730 (Counterscreen (Cytotoxicity in triplicate)), 435028 (Confirmation (IDE inhibitors in triplicate)) …. The format is functional. As to conditions: HEK293.

The target of a further experiment is T1, Insulin-degrading enzyme (Homo sapiens, UniProt P14735).
T1 sequence (P14735 whole entry): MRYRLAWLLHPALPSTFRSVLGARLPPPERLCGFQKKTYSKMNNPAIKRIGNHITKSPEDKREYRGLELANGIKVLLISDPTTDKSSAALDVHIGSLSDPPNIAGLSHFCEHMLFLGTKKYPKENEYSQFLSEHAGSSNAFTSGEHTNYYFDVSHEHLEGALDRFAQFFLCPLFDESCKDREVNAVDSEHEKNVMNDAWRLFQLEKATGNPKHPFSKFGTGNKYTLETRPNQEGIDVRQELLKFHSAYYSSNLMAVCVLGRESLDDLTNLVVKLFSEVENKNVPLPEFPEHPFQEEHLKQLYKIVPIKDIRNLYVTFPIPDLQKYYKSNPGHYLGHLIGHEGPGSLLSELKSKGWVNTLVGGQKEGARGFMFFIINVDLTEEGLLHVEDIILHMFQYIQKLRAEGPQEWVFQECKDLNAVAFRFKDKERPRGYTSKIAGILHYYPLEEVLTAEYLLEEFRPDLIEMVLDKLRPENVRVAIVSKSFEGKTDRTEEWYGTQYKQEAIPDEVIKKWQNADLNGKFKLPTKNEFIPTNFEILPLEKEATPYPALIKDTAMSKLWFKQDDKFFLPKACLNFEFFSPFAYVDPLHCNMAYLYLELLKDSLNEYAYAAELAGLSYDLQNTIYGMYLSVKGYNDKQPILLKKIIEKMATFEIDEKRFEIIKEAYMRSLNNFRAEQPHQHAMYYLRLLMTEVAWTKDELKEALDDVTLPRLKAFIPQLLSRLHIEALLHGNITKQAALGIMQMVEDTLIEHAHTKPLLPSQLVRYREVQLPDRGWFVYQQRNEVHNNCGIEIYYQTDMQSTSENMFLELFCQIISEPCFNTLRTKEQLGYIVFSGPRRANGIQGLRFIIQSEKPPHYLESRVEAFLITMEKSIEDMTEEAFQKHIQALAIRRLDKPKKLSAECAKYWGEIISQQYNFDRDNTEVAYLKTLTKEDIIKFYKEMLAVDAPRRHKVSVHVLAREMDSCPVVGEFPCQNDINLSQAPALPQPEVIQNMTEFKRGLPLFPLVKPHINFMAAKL
Put plainly: Dose Response: Fluorescence polarization-based cell-based high throughput dose response assay for inhibitors of insulin-degrading enzyme (IDE). [Related pubchem assays: 434962 (Primary screen (IDE inhibitors in singlicate)), 449730 (Counterscreen (Cytotoxicity in triplicate)), 435028 (Confirmation (IDE inhibitors in triplicate)), 434984 (Summary …. The format is functional.

The test system of experiment [5] is Candida albicans. Put plainly: growth inhibition of resistant C. albicans, dose response, CaCi-8 strain, fluconazole, dry powder, set 4 (AID 488950). Format: functional, organism-based.
In experiment [6] the test system is Candida albicans. Put plainly: C. albicans growth inhibition with fluconazole, dose response, antifungal resistance reversal project, CaCi-2 strain, Alamar Blue, dry powder, set 2 (AID 488930). Format: functional, organism-based.
Experiment [7] has as its system Candida albicans. In words: fluconazole resistance reversal in C. albicans, dose response, CaCi-2 strain, Alamar Blue, dry powder, set 4 (AID 488943). Format: functional, organism-based.
The subject of experiment [8] is Candida albicans. Put plainly: growth inhibition of azole-resistant C. albicans, dose response, CaCi-8 strain, Alamar Blue, dry powder, set 2 (AID 488909). The format is functional, organism-based.
In the next experiment the target is Hexokinase-1 (Homo sapiens, UniProt P19367). In words: SAR analysis of small molecule inhibitors of hexokinase domain containing I (HKDC1) in the hexokinase 1 selectivity assay. [Related pubchem assays (depositor defined):AID493160, AID493190]. Format: functional.
Sequence of Hexokinase-1 (P19367 whole entry, the tested form may be a part): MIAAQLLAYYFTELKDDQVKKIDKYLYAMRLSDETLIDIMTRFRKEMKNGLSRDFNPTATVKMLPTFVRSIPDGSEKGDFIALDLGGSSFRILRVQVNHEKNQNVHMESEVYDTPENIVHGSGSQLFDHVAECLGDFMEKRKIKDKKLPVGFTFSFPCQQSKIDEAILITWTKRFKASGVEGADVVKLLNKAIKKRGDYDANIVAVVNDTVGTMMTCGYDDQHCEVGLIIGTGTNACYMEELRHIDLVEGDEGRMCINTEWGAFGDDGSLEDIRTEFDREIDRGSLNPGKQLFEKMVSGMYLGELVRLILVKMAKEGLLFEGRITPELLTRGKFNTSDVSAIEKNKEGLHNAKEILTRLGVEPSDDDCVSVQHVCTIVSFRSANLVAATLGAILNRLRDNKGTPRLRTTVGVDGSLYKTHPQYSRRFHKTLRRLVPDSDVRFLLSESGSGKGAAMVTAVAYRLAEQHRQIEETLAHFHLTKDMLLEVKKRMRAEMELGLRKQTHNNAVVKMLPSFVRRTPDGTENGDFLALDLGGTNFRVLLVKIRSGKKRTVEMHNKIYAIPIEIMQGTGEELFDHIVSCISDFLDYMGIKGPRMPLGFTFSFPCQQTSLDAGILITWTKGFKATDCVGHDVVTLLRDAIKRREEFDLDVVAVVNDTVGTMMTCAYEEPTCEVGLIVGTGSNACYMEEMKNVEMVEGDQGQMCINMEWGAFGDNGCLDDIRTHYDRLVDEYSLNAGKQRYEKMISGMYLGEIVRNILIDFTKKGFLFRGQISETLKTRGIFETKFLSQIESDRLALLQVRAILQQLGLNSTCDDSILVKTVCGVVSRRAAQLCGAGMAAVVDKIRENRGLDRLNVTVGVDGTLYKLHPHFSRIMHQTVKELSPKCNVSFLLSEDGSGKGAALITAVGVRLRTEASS
The target in a further experiment is T2, Hexokinase HKDC1 (Homo sapiens, UniProt Q2TB90).
T2 sequence (Q2TB90 whole entry): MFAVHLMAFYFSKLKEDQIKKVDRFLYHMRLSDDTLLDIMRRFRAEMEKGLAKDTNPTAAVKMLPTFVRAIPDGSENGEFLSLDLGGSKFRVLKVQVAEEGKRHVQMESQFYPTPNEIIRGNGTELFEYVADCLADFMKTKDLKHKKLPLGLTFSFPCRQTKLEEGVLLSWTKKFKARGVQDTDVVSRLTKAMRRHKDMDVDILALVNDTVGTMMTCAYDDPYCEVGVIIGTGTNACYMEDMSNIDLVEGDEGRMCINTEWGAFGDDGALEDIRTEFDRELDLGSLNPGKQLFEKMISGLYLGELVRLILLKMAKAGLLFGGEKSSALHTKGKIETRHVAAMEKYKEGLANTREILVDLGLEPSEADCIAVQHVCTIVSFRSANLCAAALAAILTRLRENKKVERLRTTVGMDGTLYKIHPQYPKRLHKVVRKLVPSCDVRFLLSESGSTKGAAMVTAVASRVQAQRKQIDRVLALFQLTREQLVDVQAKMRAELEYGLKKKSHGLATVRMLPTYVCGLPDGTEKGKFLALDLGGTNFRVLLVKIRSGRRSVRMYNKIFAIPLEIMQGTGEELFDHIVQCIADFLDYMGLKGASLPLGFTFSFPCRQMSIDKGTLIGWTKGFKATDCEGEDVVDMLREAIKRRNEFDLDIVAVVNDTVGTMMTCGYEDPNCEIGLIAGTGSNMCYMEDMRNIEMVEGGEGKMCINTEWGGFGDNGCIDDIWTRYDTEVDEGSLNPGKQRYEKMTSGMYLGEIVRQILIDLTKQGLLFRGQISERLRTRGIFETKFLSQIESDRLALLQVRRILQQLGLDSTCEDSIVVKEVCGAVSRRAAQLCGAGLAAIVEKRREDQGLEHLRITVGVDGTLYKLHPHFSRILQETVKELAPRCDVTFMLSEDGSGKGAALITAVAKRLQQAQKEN
In words: SAR analysis of small molecule inhibitors of hexokinase domain containing I (HKDC1). [Related pubchem assays (depositor defined):AID493160, AID493190]. The format is functional.

Experiment [9] concerns the target T3, Beta-2 adrenergic receptor (Homo sapiens, UniProt P07550). In words: beta2AR agonists driving receptor internalization, dose response, cell-based, FAP fluorogen, flow cytometry, cherry pick 1 (AID 588763). The format is functional.
In experiment [10] the target is T3, Beta-2 adrenergic receptor. In words: Dose response for HTS for Beta-2AR agonists via FAP method from Powderset2. The format is functional.
The next experiment has as its target Large T antigen (Simian virus 40, UniProt P03070). The format is functional, Betapolyomavirus macacae.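 Note: Confirmatory-stage PubChem screen for compounds that inhibit SV40 T antigen.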
In experiment [11] the target is FAD-linked sulfhydryl oxidase ALR (Homo sapiens, UniProt P55789). In words: inhibitors of human ALR sulfhydryl oxidase, dose response, biochemical, H2O2 detection, luminescence, cherry-pick (AID 493248).
Sequence of FAD-linked sulfhydryl oxidase ALR (P55789 whole entry): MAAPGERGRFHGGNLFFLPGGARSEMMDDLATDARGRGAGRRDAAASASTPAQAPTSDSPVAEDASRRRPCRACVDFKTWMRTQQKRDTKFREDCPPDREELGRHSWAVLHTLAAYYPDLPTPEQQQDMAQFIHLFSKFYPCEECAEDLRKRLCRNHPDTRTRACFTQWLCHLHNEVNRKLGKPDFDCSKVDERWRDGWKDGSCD
Experiment [12] concerns the target T4, Microphthalmia-associated transcription factor (Homo sapiens, UniProt O75030).
T4 sequence (O75030 whole entry): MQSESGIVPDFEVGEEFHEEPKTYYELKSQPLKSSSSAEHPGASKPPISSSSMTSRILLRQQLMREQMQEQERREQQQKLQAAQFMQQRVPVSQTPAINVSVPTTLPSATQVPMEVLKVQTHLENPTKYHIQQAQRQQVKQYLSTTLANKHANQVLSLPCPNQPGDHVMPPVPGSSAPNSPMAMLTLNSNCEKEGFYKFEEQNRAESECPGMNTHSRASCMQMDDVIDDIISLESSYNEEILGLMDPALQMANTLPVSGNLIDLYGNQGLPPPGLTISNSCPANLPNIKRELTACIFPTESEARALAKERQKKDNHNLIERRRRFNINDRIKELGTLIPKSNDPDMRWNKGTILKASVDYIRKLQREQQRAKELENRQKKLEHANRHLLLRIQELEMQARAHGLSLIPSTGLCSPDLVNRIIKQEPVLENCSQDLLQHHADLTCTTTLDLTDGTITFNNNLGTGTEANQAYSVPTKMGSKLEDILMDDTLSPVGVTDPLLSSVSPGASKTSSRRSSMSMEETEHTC
In words: TRPM1 promoter luciferase signal decrease, dose response, MITF inhibitor project, cell-based, SK-MEL-5, cherry-picked, set 3 (AID 493073).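 Note: SK-MEL-5 melanoma cells with luciferase driven by the MITF target TRPM1 promoter.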 Format: functional.

In experiment [13] the test system is A-375. In words: MITF: Counter assay: A375 proliferation Measured in Cell-Based System Using Plate Reader - 2084-03_Inhibitor_Dose_DryPowder_Activity. [Related pubchem assays (depositor defined):AID488944]. The format is functional. As to conditions: Homo sapiens.
Experiment [14] concerns A-375. Put plainly: A375 melanoma cell viability reduction, dose response, counter-screen for MITF modulator project, cherry-pick samples, set 2 (AID 540335). Format: functional, cell-based. As to conditions: Homo sapiens.

Active and inactive are the calls of the source.

T3 sequence (P07550 whole entry): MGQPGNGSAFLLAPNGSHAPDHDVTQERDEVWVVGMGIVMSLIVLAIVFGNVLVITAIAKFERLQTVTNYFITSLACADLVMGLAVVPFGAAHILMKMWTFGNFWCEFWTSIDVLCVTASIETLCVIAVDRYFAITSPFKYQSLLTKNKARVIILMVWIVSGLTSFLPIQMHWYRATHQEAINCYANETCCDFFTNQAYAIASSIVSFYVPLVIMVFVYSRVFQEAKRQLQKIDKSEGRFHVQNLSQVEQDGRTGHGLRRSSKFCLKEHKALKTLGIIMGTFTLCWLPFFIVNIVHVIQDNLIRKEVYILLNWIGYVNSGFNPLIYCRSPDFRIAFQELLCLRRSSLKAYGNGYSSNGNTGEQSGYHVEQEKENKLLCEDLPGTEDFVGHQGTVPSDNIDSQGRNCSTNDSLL
Sequence of Large T antigen (P03070 whole entry): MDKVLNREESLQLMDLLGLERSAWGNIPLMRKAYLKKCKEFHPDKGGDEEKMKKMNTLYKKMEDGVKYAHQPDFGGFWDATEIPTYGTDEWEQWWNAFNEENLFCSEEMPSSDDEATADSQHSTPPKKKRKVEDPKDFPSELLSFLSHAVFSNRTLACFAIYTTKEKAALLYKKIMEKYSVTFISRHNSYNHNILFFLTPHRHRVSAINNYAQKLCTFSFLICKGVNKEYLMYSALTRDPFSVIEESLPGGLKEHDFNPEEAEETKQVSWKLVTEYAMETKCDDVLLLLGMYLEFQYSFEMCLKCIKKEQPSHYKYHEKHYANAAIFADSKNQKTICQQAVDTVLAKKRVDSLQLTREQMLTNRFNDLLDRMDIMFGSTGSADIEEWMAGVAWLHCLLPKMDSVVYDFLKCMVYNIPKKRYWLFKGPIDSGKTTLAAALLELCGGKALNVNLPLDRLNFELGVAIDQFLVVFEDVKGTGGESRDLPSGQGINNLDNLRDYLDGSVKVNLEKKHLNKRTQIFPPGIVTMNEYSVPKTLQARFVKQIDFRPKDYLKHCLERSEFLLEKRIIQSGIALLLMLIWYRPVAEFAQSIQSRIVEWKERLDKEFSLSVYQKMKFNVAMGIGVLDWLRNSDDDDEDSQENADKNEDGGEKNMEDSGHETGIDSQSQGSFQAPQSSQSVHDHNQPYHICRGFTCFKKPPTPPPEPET

Consider `C[C@@H]1CN([C@H](C)CO)C(=O)c2cccc(NC(=O)Nc3ccc(F)cc3)c2O[C@H]1CN(C)S(=O)(=O)c1ccc(Cl)cc1`, for which the AC50 in the experiment with INS1 [1] is 48 µM (active); with INS1 [2], 227 µM (active); in the experiment with INS1 [3], 62.1 µM (active).

Turning to `O=C(C1CCC1)N1CCN(c2ccnc3cc(Cl)ccc23)CC1`, the results for the IC50 (in [4]; on Insulin-degrading enzyme) were 22.1 µM (not active) and 31.6 µM (not active), respectively. The AC50 in the experiment with Candida albicans [5] was 5 µM (active); in the experiment with Candida albicans [6] it was 1.5 µM (active); in the experiment with Candida albicans [7], 16.9 µM (active); in the experiment with Candida albicans [8] it was 0.58 µM (active).

For `N#Cc1ccc(CSc2nnc(NC(=O)c3ccc4ccccc4n3)s2)cc1`, the IC50 at Hexokinase-1 and on Hexokinase HKDC1 was > 80 µM (inactive) in each case.

Turning to `CCOC(=O)c1ccc(NC(=O)Cn2nnc(-c3ccccc3)n2)cc1`, the EC50 in experiment [9] is 1.18 µM (active); in experiment [10], 1.31 µM (active).

Take `O=C1NC(=O)N(c2ccccc2)C(=O)/C1=C/C=C/c1ccco1`: the IC50 at Large T antigen is 26.5 µM (active). The AC50 in [11] is 0.449 µM (active); in experiment [12], 8.29 µM (active); with A-375 [13], > 35 µM (active); with A-375 [14] it was > 35 µM (active).

Source of the values: ChEMBL document CHEMBL1201862, “PubChem BioAssay data set” (2004).
